# Legend:
# Type in all cases: cell-based
# HIV-1/100-Ile = test: Inhibition of HIV-1 induced syncytium formation in CEM cells, RT mutant 100-Ile; settings: Human immunodeficiency virus 1, CCRF-CEM, 96 h, Table 2B, day 4, averages of 2 to 3 independent experiments, read-out: Antiviral Activity of Comparative Compounds EC50, 100-Ile
# Text: (§1) CEM cells were obtained from the American Tissue Cell Culture Collection (Rockville, Md.). HIV-1(IIIB) was originally obtained from the culture supernatant of persistently HIV-1-infected H9 cells and was provided by R. C. Gallo and M. Popovic (National Cancer Institute, National Institutes of Health, Bethesda, Md.). […] 67: 5353-5359 (1993); HIV-1/Lys-138 ("Lys-138") was selected for resistance against TSAO-m^3T as described in Balzarini et al, Virology 192: 246-253 (1993) and Balzarini et al, Proc. Nat. Acad. Sci. USA 90: 6952-6956 (1993); HIV-1/181-Cys ("181-Cys") was selected for resistance against pyridinone L-697,661 as described in Balzarini et al, Virology 192: 246-253 (1993); and HIV-1/188-His ("188-His") was selected for resistance against HEPT as described in Balzarini et al, Mol. Pharmocol. 44: 694-701 (1993). 188-His was then further converted to HIV-1/188-Leu "188-Leu") upon further passage in cell culture in the absence of the HEPT.
# (§2) CEM cells were suspended at ≈300,000 cells per ml of culture medium and infected with approximately 100 CCID50 (CCID50 being the 50% cell culture infective dose) of HIV-1(IIIB) or one of the HIV-1 RT mutant strains described above. Then 100 μl of the infected cell suspensions was added to 200 μl microtiter plate wells containing 100 μl of appropriate serial (5-fold) dilutions of the test compounds. The inhibitory effect of the test compounds on HIV-1 induced syncytium formation in CEM cells was examined microscopically on day 4 post infection.
# HIV-1/106-Ala = test: Inhibition of HIV-1 induced syncytium formation in CEM cells, RT mutant 106-Ala; settings: Human immunodeficiency virus 1, CCRF-CEM, 96 h, Table 2B, day 4, averages of 2 to 3 independent experiments, read-out: Antiviral Activity of Comparative Compounds EC50, 106-Ala
# Text: as §1, §2
# in vitro = settings: human, cem cells, CC50 (50% cytostatic concentration), Table 2B; CEM cell proliferation; averages of 2 to 3 independent experiments
# Text: as §1
# ^b 50% cytostatic concentration (i.e., compound concentration require
# to inhibit CEM cell proliferation by 50%)
# HIV-1(IIIB) = test: Inhibition of HIV-1 induced syncytium formation in CEM cells, wild type; settings: Human immunodeficiency virus 1, IIIB, CCRF-CEM, 96 h, Table 2B, WT = HIV-1(IIIB), day 4, averages of 2 to 3 independent experiments, read-out: Antiviral Activity of Comparative Compounds EC50, WT
# Text: as §1, §2
# HIV-1/Lys-138 = test: Inhibition of HIV-1 induced syncytium formation in CEM cells, RT mutant 138-Lys; settings: Human immunodeficiency virus 1, CCRF-CEM, 96 h, Table 2B, day 4, averages of 2 to 3 independent experiments, read-out: Antiviral Activity of Comparative Compounds EC50, 138-Lys
# Text: as §1, §2
# HIV-1/181-Cys = test: Inhibition of HIV-1 induced syncytium formation in CEM cells, RT mutant 181-Cys; settings: Human immunodeficiency virus 1, CCRF-CEM, 96 h, Table 2B, day 4, averages of 2 to 3 independent experiments, read-out: Antiviral Activity of Comparative Compounds EC50, 181-Cys
# Text: as §1, §2
Compound,EC50 (HIV-1/100-Ile) [µg/mL],EC50 (HIV-1/106-Ala) [µg/mL],CC50 (in vitro) [µg/mL],EC50 (HIV-1(IIIB)) [µg/mL],EC50 (HIV-1/Lys-138) [µg/mL],EC50 (HIV-1/181-Cys) [µg/mL]
O=C(OC1CCCCC1)c1cc(NC(=S)c2ccccc2)ccc1Cl [Compound 82],2,1,5.2,0.03,0.55,0.8
COc1ccc(NC(=S)c2ccoc2C)cc1CC(=O)OC(C)C [Compound 57],1.3,0.2,> 100,0.009,0.08,0.5
C=CCOc1cc(NC(=S)c2sccc2C)ccc1C#N [Compound 77],≥ 1,≥ 1,3.6,0.045,0.55,> 1
CC(C)OC(=O)c1cc(NC(=S)c2ccsc2)ccc1Cl [Compound 92],0.4,0.75,4.3,0.02,0.5,0.37
Cc1occc1C(=S)Nc1ccc(Cl)c(C(=O)OCC2CC2)c1 [Compound 105],0.4,0.2,6.7,0.015,0.085,0.07
Cc1ccoc1C(=S)Nc1ccc(Cl)c(C(=O)OC(C)C)c1 [Compound 87],3,1,15,0.02,0.55,0.53
CCOC(=O)CSc1cc(NC(=S)c2ccoc2C)ccc1Cl [Compound 116],1.8,5.5,≥ 100,0.085,0.6,2
CC(C)ON=Cc1cc(NC(=S)c2ccccc2)ccc1Cl [Compound 96],> 1,0.75,9,0.05,0.17,> 1
CC(C)OC(=O)c1cc(NC(=S)c2ccccc2N)ccc1Cl [Compound 85],6,7.5,6.7,0.5,5.5,5.3
C=CCOc1cc(NC(=S)c2ccoc2C)ccc1OC [Compound 73],2.9,0.8,> 100,0.017,0.09,0.85
Cc1sccc1C(=S)Nc1ccc(Cl)c(C=NOC(C)(C)C)c1 [Compound 61],0.2,0.2,12,0.01,0.05,0.2
CCC(CC)OC(=O)c1cc(NC(=S)c2ccccc2N)ccc1Cl [Compound 67],≥ 10,≥ 10,29,0.75,5.5,> 10
Cc1occc1C(=S)Nc1ccc(Cl)c(C(=O)OC(C)C)c1 [Compound 49],0.6,0.6,5.2,0.007,0.6,0.2
Cc1occc1C(=S)Nc1ccc(Cl)c(C(=O)OCC(F)(F)F)c1 [Compound 106],0.5,0.08,> 100,0.007,0.065,0.085
Cc1occc1C(=S)Nc1ccc(Cl)c(C(=O)OC2CCCCC2)c1 [Compound 83],0.17,0.057,9.7,0.004,0.035,0.07
CCC(CC)OC(=O)c1cc(NC(=O)c2ccccc2N)ccc1Cl [Compound 66],> 10,9,25,0.6,> 10,≥ 10
Cc1occc1C(=O)Nc1ccc(Cl)c(C(=O)OC(C)C2CC2)c1 (stereo not drawn) [Compound 54],> 10,5,44,0.6,> 10,1
Cc1ccoc1C(=S)Nc1ccc(Cl)c(C=NOC(C)C)c1 [Compound 94],0.75,0.5,3.1,0.01,0.15,0.6
C=CCOc1cc(NC(=S)c2ccoc2C)ccc1C#N [Compound 74],6,0.45,> 100,0.015,0.09,3
Cc1occc1C(=S)Nc1ccc(Cl)c(C(=O)OC(C)C2CC2)c1 (stereo not drawn) [Compound 55],0.65,0.08,17,0.009,0.18,0.11
Cc1occc1C(=S)Nc1ccc(Cl)c(C(=O)OCC(C)C)c1 [Compound 103],0.19,0.075,8.5,0.01,0.06,0.07
COc1ccccc1C(=S)Nc1ccc(Cl)c(C(=O)OC2CCCC2)c1 [Compound 69],0.65,0.65,10,0.04,0.55,3.5
Cc1occc1C(=S)Nc1ccc(Cl)c(C(=O)OC2CCCC2)c1 [Compound 109],0.17,0.04,4.3,0.005,0.035,0.045
CC(C)OC(=O)c1cc(NC(=S)c2ccccc2)ccc1Cl [Compound 63],4.5,5,4.3,0.05,2.2,5
